The text below walks through data of US20200407717A1, “METHODS OF MODULATING ANTISENSE ACTIVITY” (Ionis Pharmaceuticals, Inc., priority 2018, published 2020).

In the oligonucleotide strings, read from the 5' end, every base follows the letter of its sugar. An asterisk marks phosphorothioate; unmarked linkages are phosphodiester. Other units and linkages are bracketed, terminal groups are in braces. A string of capitals states the bases alone. e = 2'-O-(2-methoxyethyl) (MOE); k = constrained ethyl (cEt); [5mC] = 5-methylcytosine; d = 2'-deoxy (DNA); f = 2'-fluoro

One series deals with EGF-EGFR signaling. Kind of series: EGFR signaling western blot (p-EGFR, p-ERK), A431 cells. The following applies: 2 μM for 16 hours. Type of series: cell-based. On the procedure:
In order to test the effects of a PS-ASO on EGFR signaling, A431 cells were incubated with compound no. 116847 or no PS-ASO compound for 16 hours. All cells were then treated with EGF prior to being subjected to the pulse-chase protocol described above. Cell lysates were run on a SDS-PAGE gel and analyzed by sequential western blot for phosphorylated EGFR (P-EGFR), total EGFR (T-EGFR), phosphorylated ERK (P-ERK), and total ERK (T-ERK) using the antibodies described above for EGFR, 4370 for P-ERK (Cell Signaling Technology), and 4695 for T-ERK (Cell Signaling Technology).
110080, 25690, 25699, 395251, or 395254 at 2 μM for 16 hours prior to carrying out the pulse-chase experiment described above.
(In general: Immunoblotting shows a protein as a band on a membrane.)
As for “AesGesTes^mCesTesAdsGdsGdsGdsTds^mCdsAds^mCdsAdsAdsTes^mCesTesGesGe (antisense eA*eG*eT*e[5mC]*eT*dA*dG*dG*dG*dT*d[5mC]*dA*d[5mC]*dA*dA*eT*e[5mC]*eT*eG*eG) [compound 25699]”, the EGFR signaling result is listed as “not be impacted”. As to “^mCesGesTes^mCesGesTds^mCdsGdsTds^mCdsAdsTds^mCds^mCdsTds^mCesGesTes^mCes^mCe (antisense e[5mC]*eG*eT*e[5mC]*eG*dT*d[5mC]*dG*dT*d[5mC]*dA*dT*d[5mC]*d[5mC]*dT*e[5mC]*eG*eT*e[5mC]*e[5mC]) [compound 110080]”, the EGFR signaling result is recorded as “not be impacted”. As for “^mCes^mCesAesGesGes^mCdsTdsGdsGdsTdsTdsAdsTdsGdsAds^mCesTes^mCesAesGe (antisense e[5mC]*e[5mC]*eA*eG*eG*d[5mC]*dT*dG*dG*dT*dT*dA*dT*dG*dA*e[5mC]*eT*e[5mC]*eA*eG) [compound 395251]”, the EGFR signaling entry is recorded as “not be impacted”.

The next series deals with EGFR (Homo sapiens, UniProt P00533). Kind of series: Competitive NanoBRET binding assay. Further details: made in house; host or cells: HEK293 cells. The settings on record: Competitive BRET vs 10 nM AF594-labeled 766636; Table 6. The protocol: NanoBRET (bioluminescence resonance energy transfer) binding assays were performed as described in Vickers and Crooke. PLOS One, 11(8), (2016). An EGFR NLuc construct was prepared by first amplifying human EGFR from the full length cDNA clone (Origene RC217223) with forward PCR primer 5′-[…]-3′ (SEQ ID NO: 1) and reverse PCR primer 5′-[…] (SEQ ID NO: 2). The amplified product was ligated into the NheI and XhoI sites of the NanoLuc expression vector pFC32K Nluc CMV-Neo (Promega). Protein was expressed in HEK293 cells and isolated using Protein G magnetic beads. For competitive BRET, the Alexafluor594-labeled modified oligonucleotide 766636 was diluted into water in opaque white 96-well plates at 10 nM and competed with 0.1-10,000 nM of unlabeled modified oligonucleotide. […] of 2× binding buffer containing […] (relative luminescence units) beads/well was added and plates were shaken for 10 minutes at room temperature. Nanoluciferase activity and BRET were measured in a Glowmax Discover plate reader and EC50 values, shown in the tables below, were calculated using GraphPad Prism. For direct BRET, Alexafluor594 modified nucleotides were diluted at 0.1-10,000 nM and experiments were performed as described above.
(In general: Bioluminescence resonance energy transfer reports proximity on the nanometre scale.)
The term EC50 denotes the concentration needed to bring the measured effect to its halfway point. High values mean a need for much substance, low ones an effect from little substance. As for “AACGAGGTACTGTGTAAGTC (sugars from the 5' end f5 d10 f5, all phosphorothioate, methylation of C and T or U not given here) [compound 1147369]”, the EC50 worked out at 2630 nM.

“AAGCAGTTGGTGGTGC (sugars from the 5' end k3 d10 k3, all phosphorothioate, methylation of C not given here) [compound 999005]” yielded an EC50 of 39.1 nM. In turn, “AATCTCCTTGCTGTATTTGT (sugars from the 5' end f5 d10 f5, all phosphorothioate, methylation of C and T or U not given here) [compound 1147334, 5-10-5 2′-F gapmer, phosphorothioate]” displayed an EC50 of 4370 nM. The substance “ACACGGTATTGCCCTTGAAA (sugars from the 5' end e5 d10 e5, all phosphorothioate, methylation of C not given here) [compound 110128, 5-10-5 2′-MOE gapmer, phosphorothioate]” yielded a concentration for a half-maximal effect (EC50) of 2280 nM.

The substance “ACCCAATTCAGAAGGAAGGA (sugars from the 5' end e5 d10 e5, all phosphorothioate, methylation of C not given here) [compound 476366, 5-10-5 2′-MOE gapmer, phosphorothioate]” yielded an EC50 of 2240 nM. As to “AGGATGCATTGCTGAC (sugars from the 5' end k3 d10 k3, all phosphorothioate, methylation of C not given here) [compound 999006]”, the EC50 was 1710 nM. On the same count and under the same terms, for “AGTTGTCATGGATGAC (sugars from the 5' end k3 d10 k3, all phosphorothioate, methylation of C not given here) [compound 999003]” the value was 2300 nM; for “ATATTGCATCAGATCTCAAT (sugars from the 5' end f5 d10 f5, all phosphorothioate, methylation of C and T or U not given here) [compound 1147370]”, 4650 nM; for “AUAAUCTTCCAGGGCCACAA (sugars from the 5' end f5 d10 f5, all phosphorothioate, methylation of C not given here) [compound 1147360, 5-10-5 2′-F gapmer, phosphorothioate]”, 108 nM. On to “CAGCAGGCAACTGTCGCTGA (sugars from the 5' end e5 d10 e5, all phosphorothioate, methylation of C not given here) [compound 462026, 5-10-5 2′-MOE gapmer, phosphorothioate]”, for which a half-maximal response (EC50) required 670 nM. Substance “CCTTCCACAATGCCAA (sugars from the 5' end k3 d10 k3, all phosphorothioate, methylation of C not given here) [compound 999002, 3-10-3 cEt gapmer, phosphorothioate]” returned a half-maximal effective concentration (EC50) of 633 nM. The substance “CCTTCCCTGAAGGTTCCTCC (sugars from the 5' end f5 d10 f5, all phosphorothioate, methylation of C and T or U not given here) [compound 804856, 5-10-5 2′-F gapmer, phosphorothioate]” yielded an EC50 of 2750 nM.

In the case of “CTAACATGCAATACTGCAGA (sugars from the 5' end e5 d10 e5, all phosphorothioate, methylation of C not given here) [compound 395257, 5-10-5 2′-MOE gapmer, phosphorothioate]”, the EC50 was determined as 2630 nM.

Substance “CTGATGATCTGCAGGTTTTC (sugars from the 5' end f5 d10 f5, all phosphorothioate, methylation of C and T or U not given here) [compound 1147367]” yielded an EC50 of 114 nM. On the same count and under the same terms, for “CTTTCCAGAGGGGCCA (sugars from the 5' end k3 d10 k3, all phosphorothioate, methylation of C not given here) [compound 998998, 3-10-3 cEt gapmer, phosphorothioate]” the value was 7.25 nM; for “CUGUUGGGATATTTTAGCCU (sugars from the 5' end f5 d10 f5, all phosphorothioate, methylation of C not given here) [compound 1147366]”, 87.2 nM; for “GACTGTGGTCATGAGC (sugars from the 5' end k3 d10 k3, all phosphorothioate, methylation of C not given here) [compound 999001]”, 2340 nM. Regarding “GAGTCAGTATCCCAGTGTCT (sugars from the 5' end f5 d10 f5, all phosphorothioate, methylation of C and T or U not given here) [compound 1147314, 5-10-5 2′-F gapmer, phosphorothioate]”, the EC50 turned out to be 218 nM. The substance “GGCCATCACGCCACAG (sugars from the 5' end k3 d10 k3, all phosphorothioate, methylation of C not given here) [compound 998997, 3-10-3 cEt gapmer, phosphorothioate]” had a concentration giving a half-maximal response (EC50) of 2800 nM. Same read-out and setting: next, “TAAGTACTACTGGGCCATGG (sugars from the 5' end e5 d10 e5, all phosphorothioate, methylation of C not given here) [compound 324568, 5-10-5 2′-MOE gapmer, phosphorothioate]”: 648 nM; “TCCACAGTCTTCTGGG (sugars from the 5' end k3 d10 k3, all phosphorothioate, methylation of C not given here) [compound 998999, 3-10-3 cEt gapmer, phosphorothioate]”: 214 nM; “TCGTCTGTGCATCTCTCCTG (sugars from the 5' end f5 d10 f5, all phosphorothioate, methylation of C and T or U not given here) [compound 1147291, 5-10-5 2′-F gapmer, phosphorothioate]”: 165 nM. Still for that read-out and setting: for “TGGCAGTGATGGCATG (sugars from the 5' end k3 d10 k3, all phosphorothioate, methylation of C not given here) [compound 999000]” the value was 1400 nM; for “TGGTAATCCACTTTCAGAGG (sugars from the 5' end e5 d10 e5, all phosphorothioate, methylation of C not given here) [compound 404071, 5-10-5 2′-MOE gapmer, phosphorothioate]”, 3140 nM; for “TTCTGGGCAGCCCCAC (sugars from the 5' end k3 d10 k3, all phosphorothioate, methylation of C not given here) [compound 998996, 3-10-3 cEt gapmer, phosphorothioate]”, 1430 nM. “TTTTGGCAAAGTAATCGTCC (sugars from the 5' end e5 d10 e5, all phosphorothioate, methylation of C not given here) [compound 286529, 5-10-5 2′-MOE gapmer, phosphorothioate]” came in with an EC50 of 1840 nM.
